EC50, melting point and solubility data for two molecules are collected here from US8193192B2, “Heterocyclic FXR binding compounds” (Phenex Pharmaceuticals AG, priority 2006, dated 2012).

Data set [1] addresses T1, human farnesoid X receptor (FXR) alpha ligand binding domain (Homo sapiens, UniProt Q96RI1).
T1 construct: made in house; host or cells: E. coli BL21(DE3), vector pDEST15
T1 sequence (Q96RI1 187-472 isoform Q96RI1-2): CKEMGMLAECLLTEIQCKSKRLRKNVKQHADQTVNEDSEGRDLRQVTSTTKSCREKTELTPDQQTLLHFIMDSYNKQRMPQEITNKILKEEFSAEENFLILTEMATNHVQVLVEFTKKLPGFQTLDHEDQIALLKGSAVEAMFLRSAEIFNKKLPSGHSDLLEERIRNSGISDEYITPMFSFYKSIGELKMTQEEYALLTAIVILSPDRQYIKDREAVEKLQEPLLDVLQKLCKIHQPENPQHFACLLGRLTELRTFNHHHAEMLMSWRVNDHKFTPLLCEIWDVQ
Nature of the data set: FRET activity assay (ligand mediated cofactor peptide interaction, LANCE). The data set is classed as biochemical. Conditions: FXR-LBD/SRC-1 peptide interaction. The method, then:
Determination of a ligand mediated cofactor peptide interaction to quantify ligand binding to the nuclear receptor Farnesoid X Receptor (FXR) was performed as follows:
Preparation of human farnesoid X receptor (FXR) alpha ligand binding domain: The human FXRalpha ligand binding domain (LBD) was expressed in E. coli strain BL21(DE3) as an N-terminally glutathione-S-transferase (GST) tagged fusion protein. The DNA encoding the FXR ligand binding domain was cloned into vector pDEST15 (Invitrogen). Expression was under control of an IPTG inducible T7 promoter. The amino acid boundaries of the ligand binding domain were amino acids 187-472 of Database entry NM_005123 (RefSeq). Expression and purification of the FXR-LBD: An overnight preculture of a transformed E. coli strain was diluted 1:20 in LB-Ampicillin medium and grown at 30° C. to an optical density of OD600=0.4-0.6. Gene expression was then induced by addition of 0.5 mM IPTG. Cells were incubated an additional 6 h at 30° C., 180 rpm. Cells were collected by centrifugation (7000×g, 7 min, room temperature). Per liter of original cell culture, cells were resuspended in 10 ml lysis buffer (50 mM Glucose, 50 mM Tris pH 7.9, 1 mM EDTA and 4 mg/ml lysozyme) and left on ice for 30 min. Cells were then subjected to sonication and cell debris removed via centrifugation (22000×g, 30 min, 4° C.). Per 10 ml of supernatant 0.5 ml prewashed Glutathione 4B sepharose slurry (Qiagen) was added and the suspension kept slowly rotating for 1 h at 4° C. Glutathione 4B sepharose beads were pelleted by centrifugation (2000 g, 15 sec, 4° C.) and washed twice in wash buffer (25 mM Tris, 50 mM KCl, 4 mM MgCl2 and 1 M NaCl). The pellet was resuspended in 3 ml elution buffer per liter of original culture (elution buffer: 20 mM Tris, 60 mM KCl, 5 mM MgCl2 and 80 mM glutathione added immediately prior to use as powder). The suspension was left rotating for 15 min at 4° C., the beads pelleted and eluted again with half the volume of elution buffer than the first time. The eluates were pooled and dialysed overnight in 20 mM Hepes buffer (pH 7.5) containing 60 mM KCl, 5 mM MgCl2 as well as 1 mM dithiothreitol and 10% (v/v) glycerol. The protein was analysed by SDS-Page.
The method measures the ability of putative ligands to modulate the interaction between the purified bacterial expressed FXR ligand binding domain (LBD) and a synthetic biotinylated peptide based on residues 676-700 of SRC-1 (LCD2, 676-700). The sequence of the peptide used was B-[…]-COOH where the N-terminus was biotinylated (B). The ligand binding domain (LBD) of FXR was expressed as fusion protein with GST in BL-21 cells using the vector pDEST15. Cells were lysed by sonication, and the fusion proteins purified over glutathione sepharose (Pharmacia) according to the manufacturers instructions. […] For ease of handling and reduction of background from compound fluorescence LANCE technology makes use of generic fluorophore labels and time resolved detection Assays were done in a final volume of 25 μl in a 384 well plate, in a Tris-based buffer (20 mM Tris-HCl pH 7.5; 60 mM KCl, 5 mM MgCl2; 35 ng/μl BSA), containing 20-60 ng/well recombinantly expressed FXR-LBD fused to GST, 200-600 nM N-terminally biotinylated peptide, representing SRC1 aminoacids 676-700, 200 ng/well Streptavidin-xIAPC conjugate (Prozyme) and 6-10 ng/well Eu W1024-antiGST (Perkin Elmer). […]

Data set [2] can be described thus: Aqueous solubility assay, Protocol A, nephelometry method. The data set is classed as physicochemical. Conditions: PBS with 5% DMSO, aqueous with cosolvent or surfactant or cyclodextrin, kinetic from dmso stock, PBS pH 7.4, 5% DMSO, 23° C. The method, then: Aqueous solubility of compounds was determined by nephelometry or by shake-flask method as follows:
Protocol A, Nephelometry Method:
Solubility of compounds was measured in PBS (pH 7.4), 5% DMSO at 23° C. Nepheloskan Ascent (Thermo Electron Corporation) nephelometer was used for measurement of light scattering. Tested compounds were dissolved in DMSO to 10 mM. Prior to measurement the compounds were further diluted with PBS in the wells to final compound concentrations of 100, 70, 50, 35, 25, 17, 12 and <10 μg/ml.
The plates were incubated at room temperature for 24 hours to reach equilibrium and the scattered light was measured. Assay validation: Aqueous solubility of acetylsalicylic acid was determined to validate the assay. […] Aqueous solubilities of examples and reference compounds are listed below in Table 2.

Values after ≈ are worked out from the molar mass of the structure shown.

In turn, `Cc1cc(OCc2c(-c3c(Cl)cccc3Cl)noc2C(C)C)cnc1Oc1ccc(C(=O)O)cc1` [Example 3, 4-(5-((3-(2,6-Dichlorophenyl)-5-isopropylisoxazol-4-yl)methoxy)-3-methylpyridin-2-yloxy)benzoic acid] gave a melting point of 74 to 76 °C. In addition, the EC50 in data set [1] is at most 1000 nM.
In data set [2], `CC(C)c1onc(-c2c(Cl)cccc2Cl)c1COc1ccc(Oc2ccc(C(=O)O)cc2)cc1` [Compound A, reference compound] gave a solubility at 24 h of 24 µM (≈ 12 µg/mL).
